Values quoted from earlier work in patent US20100047788A1, “METHOD AND KIT FOR DIAGNOSIS AND MONITORING OF THE TREATMENT OF CHRONIC TRIPANOSSOMIASIS AND CHAGAS DISEASE” (FUNDACÃO UNIVERSIDADE DE BRASÍLIA CDTCAMPUS UNIVER, priority 2006, published 2010).

System: LINE-1
Conditions: background statement; taken as indication of non occurrence of the kDNA integration

Cc1cn([C@H]2C[C@H](N=[N+]=[N-])[C@@H](CO)O2)c(=O)[nH]c1=O [AZT]
effect on retrotransposition of LINE-1: prevented the retrotransposition of LINE-1
